Series [1] deals with HCT116DICER^ex5 cells. Briefly: Cell cycle FACS screen of pools of three siRNAs per gene (G1 after nocodazole, G2/M after aphidicolin). Particulars: pools of 3 siRNAs/gene at 100 nM final, FACS 66 hours post-transfection, average of two experiments; for % G2 (Avg), Aphidicholin+: aphidicolin 2 μg/mL 18 h; for % G1 (Avg), Nocodazole+: nocodazole 100 ng/mL 18 h. In kind it is cell-based, human. The source says:
To identify targets whose modulation influences the cell cycle arrest phenotype observed with miR-192 expression, the 62 candidate genes identified as described in Example 2 and shown in TABLE 3 were silenced individually by transfecting a pool of 3 gene-specific siRNA duplexes per gene (each directed to a different region of the gene) into HCT116DICER^ex5 cells. The siRNA duplex sequences (3 duplexes per gene) used to target each of the 62 genes are shown below in TABLE 5. The siRNA duplex oligonucleotides were obtained from Sigma-Genesys, as described in Linsley, P. S. et al., Mol Cell Biol 27:2240-2252 (2007).
HCT116DICER^ex5 cells were transiently transfected with pools of three different siRNA duplexes per gene at a 100 nM final concentration using Lipofectamine RNAiMax (Invitrogen), according to the manufacturer's instructions. At 48 hours post transfection, cells were left untreated, treated with nocodazole (100 ng/mL, Sigma-Aldrich), or treated with aphidicolin (2 μg/mL, Sigma-Aldrich) for an additional 18 hours before harvesting. The cells transfected with the siRNA pools were then screened by FACS analysis as described in Example 3 for the percentage of cells arrested in G1 or G2/M as compared to the negative siRNA luciferase control.
The siRNA pools tested in this screen were ranked according to the percentage of cells arrested in G1 or G2/M following transfection, as compared with a negative control siRNA targeting luciferase. To avoid being misled by possible RNAi off-target effects, the siRNA pools were deconvoluted to identify genes for which at least 2 different siRNA duplexes from the pool caused the cell cycle arrest phenotype (data not shown).
TABLE 6 summarizes the data obtained 66 hours post-transfection by FACS analysis showing the cell cycle distribution of the HCT116DICER^ex5 cells transfected with siRNA pools of 3 siRNAs/gene. Each pool was analyzed in two separate experiments, and the average percentage of the cells trapped in G1 (following nocodazole treatment), or G2/M (following aphidicolin treatment) are shown in TABLE 6.

The test system of the next series is TOV21G cells. Briefly: miRNA and p21 expression by quantitative RT-PCR after adriamycin treatment. In kind it is cell-based. As for the experimental part:
(§1) TOV21G cells and A549 cells were obtained from the American Type Culture Collection (ATCC). TOV21G p53 and A549 p53 matched pair cell lines were created by stably infecting TOV21G and A549 cells with a lentivirus encoding either H1-term or p53 shRNA. Cells were cultured in Dulbecco's Modified Eagles Medium, supplemented with 10% fetal bovine serum, streptomycin, penicillin and L-glutamine.
(§2) MicroRNA expression was measured in the p53 matched cell lines (p53+/+ or p53−/− sh) either untreated or following treatment with various doses of the DNA damaging agent adriamycin (0, 10, 50 and 200 nM adriamycin). Forty-eight hours post treatment, RNA was harvested and the expression levels of miR-34a, miR-192, miR-215 and p21 were determined by quantitative RT-PCR with Taqman analysis carried out as described in Raymond C. K. et al., RNA 11: 1737-1744 (2005).

Another series has as its system A549 cells. Described as above. The class given is cell-based. How it is done:
as §1, §2

Series [2] deals with HCT116DICER^ex5 cells. Briefly: Cell cycle FACS analysis of siRNAs against top G1 and G2 arrest genes (nocodazole or aphidicolin). The class given is cell-based, human. Particulars: 100 nM siRNA. How it is done:
Of the 62 genes shown above in TABLE 6, the 10 genes whose targeting by siRNA caused the largest percentage of cells to arrest in G1, listed below in TABLE 7, were transfected into HCT116DICER^ex5 cells in another experiment as follows.
HCT116DICER^ex5 cells were transfected with […] miR-192 or 100 nM siRNA against luciferase, or 100 nM siRNA (one siRNA duplex of the pool of three) against the putative miR-192 target of interest, as indicated in TABLES 7 and 8. At 48 hours post transfection, cells were treated with nocodazole or aphicicolin for an additional 18 hours prior to FACS analysis. The results for the nocodazole treated cells (% of cells in G1) are provided in TABLE 7, and graphically illustrated in FIG. 3A. The results for the aphidicolin treated cells (% of cells in G2) are provided in TABLE 8 and graphically illustrated in FIG. 3B.
Background: In flow cytometry, cells or beads pass a laser one at a time.

The subject of series [3] is HCT116DICER^ex5 cells. Briefly: Transfection of siRNA pools (G1 or G2 gene set) at suboptimal levels, cell cycle FACS analysis (nocodazole or aphidicolin). The class given is cell-based, human. Particulars: 100 nM, 66 hours post transfection. As for the experimental part:
[…] At 48 hours post-transfection into HCT116DICER^ex5 cells, the cells were treated with nocodazole for an additional 18 hours prior to FACS analysis.
[…] At 48 hours post-transfection into HCT116DICER^ex5 cells, the cells were treated with aphidicolin for an additional 18 hours prior to FACS analysis.

In series [4] the test system is 3′ UTRs of the 18 candidate genes in U-2-OS cells. Briefly: 3′ UTR luciferase reporter analysis. In kind it is cell-based. As to conditions: 10 nM, 24 hours post-transfection. An excerpt: In order to test whether miR-192 is regulating these genes through seed sequence-specific recognition of binding sites within their 3' UTRs, a series of reporter constructs were generated containing the entire natural 3' UTRs of the 18 candidate genes (BCL2, CDC7, CUL5, DLG5, DTL, ERCC3, HOXA10, HRH1, LMNB2, MAD2L1, MCM10, MIS12, MPHOSPH1, PIM1, PRPF38A, […]1, SEPT10 and SMARCB1) inserted downstream of a luciferase open reading frame (SwitchGear Genomics) to create 3' UTR luciferase reporter plasmids. U-2-OS cells were transfected first with 10 nM miR-192 or 10 nM miR-192 mutant, and subsequently transfected 4 to 6 hours later with these 3' UTR reporter plasmids. A renilla luciferase expression plasmid from dual luciferase system (Promega) was used as an internal control. Luciferase activity was measured at 24 hours post-transfection, and quantified relative to renilla luciferase activity.
A general note: Reporter assays use an easily measured gene product as a stand-in for the process of interest.

Series [5] has as its system CDC7, LMNB2, MAD2L1 and CUL5. Briefly: Western blot analysis. In kind it is cell-based, human. As to conditions: HCT116DICER^ex5 cells, 10 nM, data not shown. As for the experimental part:
HCT116DICER^ex5 cells were transfected with 10 nM siRNA against luciferase or 10 nM miR-192 or 10 nM miR-192 mutant, and lysates were prepared at 28 hours or 48 hours post-transfection. For immunoblotting, 30 μg of whole cell lysate extracted in a modified RIPA buffer (150 mM NaCl, 50 mM Tris pH 7.4, 1 mM EDTA, 1% NP-40, 0.1% SDS) was used per sample. CDC7, LMNB2, MAD2L1 and CUL5 were detected by Western blot using anti-CDC7 (sc-56275, Santa Cruz Biotechnology Inc.), anti-LMNB2 (MAB3536, Millipore), anti-MAD2L1 (ab55452, Abcam) and anti-CUL5 (Invitrogen) antibodies, and protein levels were compared to the level of β-actin expression as detected by an anti-β-actin antibody (Abcam).
(A western blot detects proteins with antibodies after separation by electrophoresis.)

In series [6] the test system is HCT116DICER^ex5 cells. Briefly: Cell cycle distribution by propidium iodide FACS after miR-192 duplex transfection (untreated, nocodazole or aphidicolin). In kind it is cell-based, human. As to conditions: for % Cells with 2N (G1/S) / % Cells with 4N (G2/M): 10 nM duplex, 66 hours after transfection. How it is done:
At 48 hours post transfection, cells were left untreated, treated with nocodazole (100 ng/mL, Sigma-Aldrich), or treated with aphidicolin (2 μg/mL, Sigma-Aldrich) for an additional 18 hours before harvesting. The cells were then trypsinized, collected, fixed and stained with a propidium iodide solution. BrdU-labeling was performed according to the manufacturer's instructions (BD-Pharmigen). For phospho-histone H3 analysis, cells were fixed and permeabilized with IPF buffer (100 mM PIPES pH 6.8, 10 mM EDTA, 1 mM MgCl2, 0.2% Triton X-100, 4% formaldehyde) and stained with propidium iodide and anti-phospho-histone H3 antibody conjugated to Alexa-488 (Cell Signaling Technology). The cells were analyzed using a FACSCalibur flow cytometer (Beacton Dickinson) and FlowJo software (Tree Star, Inc.).

d = 2'-deoxy (DNA); r = 2'-OH (RNA)

For FGF2, in the series with HCT116DICER^ex5 cells [1], the “% G2 (Avg), Aphidicholin+” value is listed as 19.8% and the “% G1 (Avg), Nocodazole+” value turned out to be 33.7%.

Consider `COc1cccc2c1C(=O)c1c(O)c3c(c(O)c1C2=O)C[C@@](O)(C(=O)CO)C[C@@H]3O[C@H]1C[C@H](N)[C@H](O)[C@H](C)O1` [adriamycin], for which the “miR-192, miR-215 and miR-34a expression” value with TOV21G cells (TOV21G cells, adriamycin 10, 50 or 200 nM, 48 hours post treatment) is listed as “up-regulation”; in the series with A549 cells (A549 cells, adriamycin 10, 50 or 200 nM, 48 hours post treatment), “up-regulation”. The “expression of miR-192 and miR-215” value in the series with TOV21G cells (p53 deficient TOV21G cells, adriamycin 10, 50 or 200 nM) is “not”; with TOV21G cells (wild type (p53+/+) TOV21G cells, adriamycin 10, 50 or 200 nM), “upregulated in a dose dependent manner”; with A549 cells (p53 deficient A549 cells, adriamycin 10, 50 or 200 nM), “not”; in the series with A549 cells (wild type (p53+/+) A549 cells, adriamycin 10, 50 or 200 nM), “upregulated in a dose dependent manner”. The p21 expression result with TOV21G cells (p53 knockdown TOV21G cells) and with A549 cells (p53 knockdown A549 cells) was “lack of p21 induction” in each case.

“Luc siRNA: Control siRNA targeting luciferase, SEQ ID NOS: 11/12 (chain 1 UCGAAGUAUUCCGCGUACGTT; chain 2 CGUACGCGGAAUACUUCGATT; sugars from the 5' end r19 d2, backbone not given here) [reference compound]”: in the series with HCT116DICER^ex5 cells [2] (aphidicolin 18 hours from 48 hours post transfection), the “% Cells in G2” value was 19.2%. In addition, the “% Cells in G1” value in the series with HCT116DICER^ex5 cells [2] (nocodazole 18 hours from 48 hours post transfection) was found to be 18.5%. Moreover, in the series with HCT116DICER^ex5 cells [3] (after aphidicolin treatment), the “% G1” value came to 66.3% and the “% G2” value was 15.6%. Moreover, in the series with HCT116DICER^ex5 cells [3] (nocodazole), the “% G1” value was determined as 11.7% and the “% G2” value worked out at 83.8%. In addition, in the series with HCT116DICER^ex5 cells [1], the “% G2 (Avg), Aphidicholin+” value is given as 18.9% and the “% G1 (Avg), Nocodazole+” value came out at 13.8%.

Regarding “miR-192 mutant: Seed region mutant miR-192 duplex, guide CUGCACUAUGAAUUGACAGCC (SEQ ID NO:8), passenger SEQ ID NO:9 (sense CUGUCAAUUCAUAGUGCUGAU; listed as RNA, chemistry not given here) [reference compound]”, the “regulation of 3′ UTR luciferase reporters of the 18 genes” value in series [4] was “not”. For the same molecule, in series [5], the protein level entry is given as “not”. Further, the “% Cells with 2N (G1/S)” value in the series with HCT116DICER^ex5 cells [6] (aphidicolin 2 μg/mL 18 hours) is reported as 66.5%; with HCT116DICER^ex5 cells [6] (nocodazole 100 ng/mL 18 hours), 17%; in the series on HCT116DICER^ex5 cells [6] (untreated) it was 49.9%. The “% Cells with 4N (G2/M)” value with HCT116DICER^ex5 cells [6] (aphidicolin 2 μg/mL 18 hours) is given as 16.1%; in the series with HCT116DICER^ex5 cells [6] (nocodazole 100 ng/mL 18 hours), 66.3%; in the series on HCT116DICER^ex5 cells [6] (untreated), 30.8%. In addition, in the series with HCT116DICER^ex5 cells [6] (treated with aphidicolin), the “accumulation in the G2/M phase” value is given as “did not”.

The record behind these values is patent publication US20110118337A1, “Method of Using Compositions Comprising MIR-192 and/or MIR-215 for the Treatment of Cancer” (Merck Sharp & Dohme Corp., priority 2008, published 2011).
